Drawing on PubChem BioAssay AID2305 (GlaxoSmithKline (GSK), 2010), this text covers IC50 for 35 compounds.

The test system of this assay is P. falciparum 3D7 growth, pLDH absorbance. As to the kind of experiment: blood-stage malaria parasite growth potency – strain 3D7, dose response (AID 2305).
One may read the IC50 as the midpoint of a concentration-inhibition curve. The low end stands for greater potency in that assay, the high end for weaker potency in that assay. `COc1ccc(CN2CCC(CNC(C)c3cccc4ccccc34)CC2)cc1` (stereo not given) showed an IC50 of 180 nM.

`N#Cc1ccc(C(=O)Nc2ccc(-c3cccc(CN4CCCC4)c3)cc2)cc1` returned a 50% inhibitory concentration (IC50) of 1000 nM. Compared with the last compound, the IC50 is about 5.6-fold higher.

For `CS(=O)(=O)c1ccc2nc(NC(=O)c3csnn3)sc2c1`, the IC50 is 670 nM.

Compound `Cc1[nH]c(C)c(-c2ccc(OCc3cc(C(F)(F)F)cc(C(F)(F)F)c3)nc2)c(=O)c1Br` had an IC50 of 150 nM.

The compound `CCCN1CCN(Cc2ccc(C(=O)Nc3ccc(Cl)cc3)cc2)CC1` registered an IC50 of 50 nM.

Take `COc1ccc(Cn2c(=O)[nH]c3cc(C(=O)NC4CCN(Cc5ccccc5)CC4)ccc3c2=O)cc1`: the IC50 was 750 nM.

`CN1CCC(NCc2ccc(-c3ccc(C(F)(F)F)cc3)cc2)CC1` yielded an IC50 of 800 nM. The IC50 values of the last two compounds are within 1.5-fold of each other.

In the case of `CC1CN(c2ccc(NC(=O)c3ccsc3)cc2C(=O)N2CCN(Cc3ccc(C(C)(C)C)cc3)CC2)CC(C)O1` (stereo not given), the half-maximal inhibitory concentration (IC50) came to 870 nM.

With `COc1cc(NCCCCCNc2cc(Cl)nc3ccccc23)nc2ccccc12`, the IC50 came out at 780 nM.

The compound `O=C(NCCCCN1CCC(c2ccc(-c3ccco3)cc2)CC1)c1ccc(NC(=O)c2ccc(Cl)cc2)cc1` returned an IC50 of 540 nM. This IC50 and that of the compound before are within 1.5-fold of each other.

For the compound `COc1ccc(Nc2nc(NC3CCN(C)CC3)cc(-c3ccc(OC)cc3)n2)cc1`, the IC50 was found to be 540 nM.

For the compound `Cc1ccc(Nc2nc(NN=Cc3cc4c(cc3Br)OCO4)nc(Nc3ccc([N+](=O)[O-])cc3)n2)cc1C`, the IC50 amounted to 750 nM.

For `COc1ccc2nccc(NN=Cc3ccc([N+](=O)[O-])cc3)c2c1`, the IC50 stood at 710 nM.

As to `COc1ccccc1CNc1ccnc(NCCc2cccc(C(F)(F)F)c2)n1`, the IC50 was 930 nM. The IC50 values of the last two compounds are within 1.5-fold of each other.

For `CC(C)(C)c1cc(C(=O)N2CCN(c3ccc(C(F)(F)F)cn3)CC2)n(Cc2ccc(F)cc2)n1`, the IC50 amounted to 980 nM. The IC50 values of the last two compounds are within 1.5-fold of each other.

As for `CC(C)(C)OC(=O)NCc1ccc(Nc2nnc(-c3cccc(OCC(=O)NCc4cc(C(F)(F)F)cc(C(F)(F)F)c4)c3)o2)cc1`, the IC50 came to 830 nM.

`COC(=O)c1ccc(CCC(C)NCC(O)c2cccc(Cl)c2)cc1` (stereo not given) displayed an IC50 of 670 nM. The IC50 values of the last two compounds are within 1.5-fold of each other.

The compound `CCN1CCN(c2cc(C)c3cc(NC(=O)c4ccc(N(CC)CC)cc4)ccc3n2)CC1` had a concentration for half-maximal inhibition (IC50) of 960 nM.

As to `COc1ccccc1CNC(=O)c1cc(C2CC2)nc2c1cnn2C(C)C`, the IC50 is 1020 nM.

Compound `COc1cc2c(cc1OC)-c1cc(=Nc3c(C)cc(C)cc3C)n(C)c(=O)n1CC2` showed an IC50 of 1110 nM. This IC50 and that of the compound before are within 1.5-fold of each other.

`Clc1ccc2c(NCCCCCCCCNc3ccnc4cc(Cl)ccc34)ccnc2c1` showed a concentration for half-maximal inhibition (IC50) of 480 nM. This IC50 lies about 2.3-fold lower than the previous one.

The compound `CCCCCCCN1CC[C@H](CC(=O)Nc2ccnc3ccc(OC)cc23)[C@@H](CC)C1` registered a half-inhibitory concentration (IC50) of 590 nM.

In turn, `O=C(/C=C/c1ccc(Cl)c(Cl)c1)NCC1CCC(N2CCC(c3c[nH]c4ccccc34)CC2)CC1` (stereo not given) displayed an IC50 of 170 nM.

The compound `O=C(Nc1ccccc1)c1ccc(-c2cc3ccncc3cc2OC2CCNCC2)s1` gave an IC50 of 650 nM. Against the preceding compound, the IC50 is about 3.8-fold higher.

Consider `CO/C(=C\C=C\c1cc2cc(Cl)c(Cl)cc2[nH]1)C(=O)NC1CCN(CCNc2ccccc2)CC1`, for which the IC50 stood at 260 nM.

As for `Oc1ccc(CCCNc2nc(NCc3cccc4ccccc34)nc(NC3CCNCC3)n2)cc1`, the IC50 came to 1130 nM.

The compound `CC(=NN=C(N)N)c1ccc2ccc3ccccc3c2c1` had a half-inhibitory concentration (IC50) of 890 nM.

For `COc1ccc(COc2cc(NCCCN)nc3ccccc23)cc1`, the half-maximal inhibitory concentration (IC50) came out at 1280 nM.

`O=C(NCc1ccc2c(c1)OCO2)c1nn(CCN2CCC(N3CCCC3)CC2)cc1-c1ccc(Cl)c(Cl)c1` showed a half-inhibitory concentration (IC50) of 940 nM.

Consider `Cc1cccc2[nH]c(-c3cccc(-c4ccc(NC(=O)c5cccc(C(N)=O)c5)cc4)c3)nc12`, for which the IC50 was 410 nM.

With `Cc1c2ccc(N(C)c3ccnc(Nc4ccc5c(c4)nc(NC(C)C)n5C)n3)cc2nn1C`, the 50% inhibitory concentration (IC50) turned out to be 160 nM.

Regarding `O=S(=O)(c1cc(Cl)c(Cl)cc1Cl)N1CCCCC(c2ccc(C(F)(F)F)cc2)=N1`, the IC50 came to 200 nM.

In turn, `O=C1NC(=S)NC1=CC=Cc1ccc([N+](=O)[O-])o1` came in with an IC50 of 1070 nM.

`Cc1nccn1CCNC(=O)CN1CCC2(CCC1=O)CC(=O)c1ccccc1O2` (stereo not given) had an IC50 of 800 nM. The IC50 values of the last two compounds are within 1.5-fold of each other.

`COc1cc(OC)c2c(C)cc(NCCCN3CCOCC3)nc2c1` displayed a concentration for half-maximal inhibition (IC50) of 1070 nM.
